“And” between values parts separate entries of the source, which are not always exact repeats. Equal entries are not always repeated.
How the values were obtained:
[1] = tested on: myocardial infarction model in rats; experiment: Myocardial infarction model in rats (35 min CAO, reperfusion, infarct size by TTC); assay type: in vivo; details: rat; for IS (% AAR) / IS (% LV) / IS (% Vehicle IS): 24 h reperfusion, mean ± S.E.M.; for reduction of infarct size compared to control: p < 0.001
Description: In all groups of rats, the left anterior descending coronary artery was occluded during 35 min and released for reperfusion as previously described. For the dose range testing, the vehicle (IL30) or TRO40303 solution in IL30 (stock solution diluted in IL30 to administer ~1.5 mL/kg in each group) at increasing doses (0.3, 1, 3 and 10 mg/kg) were administered as a 5 min infusion through the jugular vein starting 10 min before coronary artery reperfusion (CAR). To evaluate the therapeutic window, the vehicle or TRO40303 at 1 mg/kg were also administered either 10 min before coronary artery occlusion (CAO) or 10 min after CAR. Infarct size was determined by triphenyltetrazolium chloride (TTC) staining and was calculated as a percentage of the area at risk (AAR), 24 h after reperfusion. For the dose range experiment, infarct size was expressed for all doses as a percent of the vehicle group infarct size.

isolated rat heart = experiment: Langendorff isolated rat heart ischemia-reperfusion, hemodynamic measurements; details: 1 μM, vs 0.03% HPBCD
Description: Ischemic reperfusion of Langendorff isolated rat heart was performed as previously described. Rat hearts were perfused either with TRO40303 1 μM (0.5 mg/mL stock in 30% HPBCD diluted 1000X in Krebs-Henseleit (KH) buffer (n = 29)) or vehicle (30% HPBCD diluted 1000X in KH buffer (n = 24)) during 30 min equilibration, 10 min low flow ischemia, and 60 min reperfusion following 30 min of total ischemia. During the reperfusion period, the following parameters were monitored via a water-filled latex balloon inserted into the left ventricle: left ventricular end diastolic pressure (LVEDP); left ventricular developed pressure (Pdev); its first derivative (dP/dt) and heart rate. Coronary flow was measured by collecting the coronary perfusate over 1 min. The rate-pressure product (RPP) was calculated as the product of Pdev and heart rate. Some of the hearts from this main experiment were used to assess ascorbate, reactive oxygen species (ROS) and lipid peroxidation as described below.

Domestic Yorkshire pigs = experiment: Porcine liposome-induced cardio-pulmonary distress model; assay type: in vivo; details: pig, 10 mg/kg i.v. liposomal formulation
Description: Domestic Yorkshire pigs (12-14 weeks, ~25 kg) received multiple i.v. injections of the test material via the external jugular vein at 10 mL/min as follows: saline as a negative control, the liposomal formulation of TRO40303 at 10 mg/kg and a bolus of Doxil® at 0.01 mg/kg as a positive control. Doxil® is a marketed liposomal formulation of doxorubicin administered intravenously that can provoke acute infusion-related reactions.
Hemodynamic changes were monitored continuously for at least 30 min after the end of each test material infusion. Systemic arterial blood pressure (SAP) and pulmonary arterial blood pressure (PAP) changes were evaluated.

[2] = Solubility in formulation vehicle; assay type: physicochemical; details: in Intralipid® 30 (IL30), concentrations up to
[3] = tested on: myocardial infarction model in rats; parameters: method as in PMID 20215409; details: rat myocardial infarction model, 2.5 mg/kg formulated in HPBCD; cited from earlier work
[4] = 0.3 mg/kg in IL30 i.v. 10 min before CAR
[5] = 1 mg/kg in IL30 i.v. 10 min before CAR
[6] = 3 mg/kg in IL30 i.v. 10 min before CAR
[7] = 10 mg/kg in IL30 i.v. 10 min before CAR

CC(C)CCC[C@@H](C)[C@H]1CC[C@H]2[C@@H]3CC/C(=N\O)[C@](C)(CCCO)[C@H]3CC[C@]12C [TRO40303, 3,5-seco-4-nor-cholestan-5-one oxime-3-ol]
IS (% AAR) [1, 4]: 26 ± 4 % AAR
IS (% LV) [1, 4]: 11 ± 2 % LV
IS (% Vehicle IS) [1, 4]: 77 ± 15 % Vehicle IS
infarct size compared to vehicle ([1]; 0.3 mg/kg in IL30 i.v. bolus 10 min before reperfusion, 24 h after reperfusion): smaller but not significantly different
infarct size compared to vehicle ([1]; 1 mg/kg in IL30 10 min after the onset of CAR): unchanged
reduction of infarct size compared to vehicle ([1]; 1 mg/kg in IL30 10 min before 35 min CAO): 55%
IS (% AAR) [1, 5]: 19 ± 2 % AAR
IS (% LV) [1, 5]: 7 ± 1 % LV
IS (% Vehicle IS) [1, 5]: 56 ± 6 % Vehicle IS
reduction of infarct size compared to vehicle ([1]; 1 mg/kg in IL30 i.v. bolus 10 min before reperfusion, p < 0.01): 40%
IS (% AAR) [1, 6]: 15 ± 2 % AAR
IS (% LV) [1, 6]: 6 ± 1 % LV
IS (% Vehicle IS) [1, 6]: 44 ± 7 % Vehicle IS
reduction of infarct size compared to control ([1]; 3 mg/kg in IL30 i.v. bolus 10 min before reperfusion, 3 mg/kg): 50% and ~ 50%
IS (% AAR) [1, 7]: 25 ± 6 % AAR
IS (% LV) [1, 7]: 7 ± 2 % LV
IS (% Vehicle IS) [1, 7]: 45 ± 10 % Vehicle IS
reduction of infarct size compared to control ([1]; 10 mg/kg in IL30 i.v. bolus 10 min before reperfusion, 10 mg/kg): 50% and ~ 50%
recovery of LVEDP at reperfusion (isolated rat heart; 60 min reperfusion after 30 min total ischemia): greatly and significantly improved
contractility (dP/dt) (isolated rat heart; reperfusion): improved
developed pressure (Pdev) (isolated rat heart; reperfusion): improved
rate-pressure product (RPP) (isolated rat heart; reperfusion): significantly higher
recovery of coronary flow (isolated rat heart; reperfusion): better recovery
change in systemic arterial blood pressure (SAP) (Domestic Yorkshire pigs): not changed
solubility [2]: ~ 6 mg/mL
reduction of infarct size [3]: 38%

Reference: PMC3923730 (Journal of Translational Medicine, 2014)
